Measurements: ChEMBL document CHEMBL4043153, “Lead selection of antiparasitic compounds from a focused library of benzenesulfonyl derivatives of heterocycles” (Bioorg Med Chem Lett, 2017)
The source made the active and inactive calls. The calls are words filed in the database; no cut-off is given here.

Legend:
[1] = system: L6; assay: Cytotoxicity against rat L6 cells; format: cell-based
[2] = Selectivity index, ratio of IC50 for rat L6 cells to IC50 for Leishmania donovani MHOM-ET-67/L82 axenic amastigotes; format: toxicity; conditions: read-out: Ratio IC50
[3] = Selectivity index, ratio of IC50 for rat L6 cells to IC50 for Trypanosoma cruzi Tulahuen C4 intracellular amastigotes infected in rat L6 cells; format: toxicity, cell-based; conditions: read-out: Ratio IC50
[4] = Selectivity index, ratio of IC50 for rat L6 cells to IC50 for intraerythrocytic form of chloroquine/pyrimethamine-resistant Plasmodium falciparum K1 infected in human RBC; format: toxicity; conditions: read-out: Ratio IC50
[5] = system: Plasmodium falciparum; assay: Antiparasitic activity against intraerythrocytic form of chloroquine/pyrimethamine-resistant Plasmodium falciparum K1; format: functional
[6] = system: Leishmania donovani; assay: Antiparasitic activity against Leishmania donovani MHOM-ET-67/L82 axenic amastigotes; format: functional
[7] = system: Trypanosoma cruzi; assay: Antiparasitic activity against Trypanosoma cruzi Tulahuen C4 intracellular amastigotes infected in rat L6 cells; format: functional, cell-based
[8] = system: Plasmodium falciparum; assay: (§1) Antiparasitic activity against intraerythrocytic form of chloroquine/pyrimethamine-resistant Plasmodium falciparum K1 infected in human RBC assessed as growth inhibition at 0.8 ug/ml preincubated for 48 hrs followed by [3H]-hypoxanthine addition measured after 24 hrs by liquid scintillation counting analysis relative to control; format: functional; conditions: read-out: GI
[9] = system: Leishmania donovani; assay: Antiparasitic activity against Leishmania donovani MHOM-ET-67/L82 axenic amastigotes assessed as growth inhibition at 4.8 ug/ml after 72 hrs by resazurin dye-based fluorometric analysis relative to control; format: functional; conditions: MHOM-ET-67/L82, 72 h, read-out: GI
[10] = system: Plasmodium falciparum; assay: as §1, with “4.8” for “0.8”; format: functional; conditions: read-out: GI
[11] = system: Plasmodium falciparum; assay: Antiparasitic activity against intraerythrocytic form of chloroquine/pyrimethamine-resistant Plasmodium falciparum K1 infected in human RBC preincubated for 48 hrs followed by [3H]-hypoxanthine addition measured after 24 hrs by liquid scintillation counting analysis; format: functional
[12] = system: Trypanosoma brucei rhodesiense; assay: Antiparasitic activity against Trypanosoma brucei rhodesiense STIB 900 trypomastigote bloodstream form assessed as growth inhibition at 4.8 ug/ml after 72 hrs by resazurin dye-based fluorometric analysis relative to control; format: functional; conditions: STIB 900, 72 h, read-out: GI
[13] = system: Trypanosoma cruzi; assay: Antiparasitic activity against Trypanosoma cruzi Tulahuen C4 intracellular amastigotes infected in rat L6 cells assessed as growth inhibition at 0.8 ug/ml after 96 hrs by CPRG/Nonidet reagent based photometric analysis relative to control; format: functional; conditions: Tulahuen C4, L6, 96 h, read-out: GI
[14] = system: Trypanosoma cruzi; assay: Antiparasitic activity against Trypanosoma cruzi Tulahuen C4 intracellular amastigotes infected in rat L6 cells assessed as growth inhibition at 4.8 ug/ml after 96 hrs by CPRG/Nonidet reagent based photometric analysis relative to control; format: functional; conditions: Tulahuen C4, L6, 96 h, read-out: GI
[15] = system: Trypanosoma brucei rhodesiense; assay: Antiparasitic activity against Trypanosoma brucei rhodesiense STIB 900 trypomastigote bloodstream form assessed as growth inhibition at 0.8 ug/ml after 72 hrs by resazurin dye-based fluorometric analysis relative to control; format: functional; conditions: STIB 900, 72 h, read-out: GI
[16] = system: Leishmania donovani; assay: Antiparasitic activity against Leishmania donovani MHOM-ET-67/L82 axenic amastigotes assessed as growth inhibition at 0.8 ug/ml after 72 hrs by resazurin dye-based fluorometric analysis relative to control; format: functional; conditions: MHOM-ET-67/L82, 72 h, read-out: GI
[17] = system: L6; assay: Cytotoxicity against rat L6 cells assessed as cell viability after 72 hrs by Alamar blue assay; format: cell-based; conditions: L6, 72 h
[18] = system: Trypanosoma cruzi; assay: Antiparasitic activity against Trypanosoma cruzi Tulahuen C4 intracellular amastigotes infected in rat L6 cells after 96 hrs by CPRG/Nonidet reagent based photometric analysis; format: functional, cell-based; conditions: Tulahuen C4, L6, 96 h
[19] = system: Leishmania donovani; assay: Antiparasitic activity against Leishmania donovani MHOM-ET-67/L82 axenic amastigotes after 72 hrs by Alamar blue assay; format: functional; conditions: MHOM-ET-67/L82, 72 h

O=S(=O)(c1ccc(Cl)cc1)N1CCCc2ccccc21
IC50 [1]: 20.5 µM
selectivity ratio [2]: 1.09
selectivity ratio [3]: 1.28
selectivity ratio [4]: 2.43
IC50 [5]: 8.43 µM
IC50 [6]: 18.9 µM
IC50 [7]: 16 µM

O=[N+]([O-])c1ccc(S(=O)(=O)N2CCc3ccccc32)cc1
inhibition of growth at 0.8 µg/mL [8]: 0%
inhibition of growth at 4.8 µg/mL [9]: 100%
inhibition of growth at 4.8 µg/mL [10]: 69.7%
Activity [11]: Active
inhibition of growth at 4.8 µg/mL [12]: 98%
inhibition of growth at 0.8 µg/mL [13]: 34.7%
inhibition of growth at 4.8 µg/mL [14]: 100%
inhibition of growth at 0.8 µg/mL [15]: 27.4%
selectivity ratio [3]: 7.9
inhibition of growth at 0.8 µg/mL [16]: 37.6%
IC50 [17]: 9.1 µM
IC50 [18]: 1.15 µM

Cc1cc(C)c(C)c(S(=O)(=O)N2CCCc3ccccc32)c1C
inhibition of growth at 0.8 µg/mL [8]: 3.1%
inhibition of growth at 4.8 µg/mL [9]: 100%
inhibition of growth at 4.8 µg/mL [10]: 56.5%
inhibition of growth at 4.8 µg/mL [12]: 3.7%
inhibition of growth at 0.8 µg/mL [13]: 15.5%
inhibition of growth at 4.8 µg/mL [14]: 60.3%
inhibition of growth at 0.8 µg/mL [15]: 2.7%
selectivity ratio [2]: 7.53
inhibition of growth at 0.8 µg/mL [16]: 94.2%
IC50 [17]: 2.71 µM
IC50 [19]: 0.36 µM

Cc1cc(C)c(C)c(S(=O)(=O)N2CCc3ccccc32)c1C
inhibition of growth at 0.8 µg/mL [8]: 3.3%
inhibition of growth at 4.8 µg/mL [9]: 100%
inhibition of growth at 4.8 µg/mL [10]: 41.8%
inhibition of growth at 4.8 µg/mL [12]: 5.7%
inhibition of growth at 0.8 µg/mL [13]: 10.3%
inhibition of growth at 4.8 µg/mL [14]: 31.4%
inhibition of growth at 0.8 µg/mL [15]: 5.5%
selectivity ratio [2]: 17.2
inhibition of growth at 0.8 µg/mL [16]: 61.3%
IC50 [17]: 12.6 µM
IC50 [19]: 0.73 µM

Cc1cc(C)c(C)c(S(=O)(=O)N2c3ccccc3CC2C)c1C (stereo not drawn)
inhibition of growth at 0.8 µg/mL [8]: 5.5%
inhibition of growth at 4.8 µg/mL [9]: 100%
inhibition of growth at 4.8 µg/mL [10]: 76.7%
inhibition of growth at 4.8 µg/mL [12]: 0%
inhibition of growth at 0.8 µg/mL [13]: 0%
inhibition of growth at 4.8 µg/mL [14]: 75.2%
inhibition of growth at 0.8 µg/mL [15]: 0%
selectivity ratio [2]: 28.8
inhibition of growth at 0.8 µg/mL [16]: 77.2%
IC50 [17]: 6.62 µM
IC50 [19]: 0.23 µM

CC1Cc2ccccc2N1S(=O)(=O)c1ccc(C(C)(C)C)cc1 (stereo not drawn)
inhibition of growth at 0.8 µg/mL [8]: 52.8%
inhibition of growth at 4.8 µg/mL [9]: 100%
inhibition of growth at 4.8 µg/mL [10]: 99.9%
IC50 [11]: 1.5 µM
inhibition of growth at 4.8 µg/mL [12]: 6.4%
inhibition of growth at 0.8 µg/mL [13]: 7.7%
inhibition of growth at 4.8 µg/mL [14]: 100%
inhibition of growth at 0.8 µg/mL [15]: 0%
selectivity ratio [2]: 7.95
selectivity ratio [3]: 1.74
inhibition of growth at 0.8 µg/mL [16]: 53.3%
IC50 [17]: 12.2 µM
IC50 [18]: 6.98 µM
selectivity ratio [4]: 8.1
IC50 [19]: 1.53 µM

CC1CCc2ccccc2N1S(=O)(=O)c1ccc(C(C)(C)C)cc1 (stereo not drawn)
inhibition of growth at 0.8 µg/mL [8]: 79.9%
inhibition of growth at 4.8 µg/mL [9]: 100%
inhibition of growth at 4.8 µg/mL [10]: 100%
IC50 [11]: 1.5 µM
inhibition of growth at 4.8 µg/mL [12]: 0%
inhibition of growth at 0.8 µg/mL [13]: 28%
inhibition of growth at 4.8 µg/mL [14]: 100%
inhibition of growth at 0.8 µg/mL [15]: 8.2%
selectivity ratio [2]: 3.15
selectivity ratio [3]: 1.12
inhibition of growth at 0.8 µg/mL [16]: 62%
IC50 [17]: 6.81 µM
IC50 [18]: 6.06 µM
selectivity ratio [4]: 4.57
IC50 [19]: 2.16 µM

Cc1cc(C)c(C)c(S(=O)(=O)N2c3ccccc3CCC2C)c1C (stereo not drawn)
inhibition of growth at 0.8 µg/mL [8]: 6.7%
inhibition of growth at 4.8 µg/mL [9]: 100%
inhibition of growth at 4.8 µg/mL [10]: 78%
inhibition of growth at 4.8 µg/mL [12]: 0%
inhibition of growth at 0.8 µg/mL [13]: 9.7%
inhibition of growth at 4.8 µg/mL [14]: 69.3%
inhibition of growth at 0.8 µg/mL [15]: 0%
selectivity ratio [2]: 20
inhibition of growth at 0.8 µg/mL [16]: 73.1%
IC50 [17]: 12.4 µM
IC50 [19]: 0.62 µM

Cc1cc(C)c(C)c(S(=O)(=O)n2ccc3ccccc32)c1C
inhibition of growth at 0.8 µg/mL [8]: 3.2%
inhibition of growth at 4.8 µg/mL [9]: 100%
inhibition of growth at 4.8 µg/mL [10]: 41.4%
inhibition of growth at 4.8 µg/mL [12]: 2.7%
inhibition of growth at 0.8 µg/mL [13]: 0.2%
inhibition of growth at 4.8 µg/mL [14]: 24.7%
inhibition of growth at 0.8 µg/mL [15]: 3.1%
selectivity ratio [2]: 13.4
inhibition of growth at 0.8 µg/mL [16]: 76.4%
IC50 [17]: 8.97 µM
IC50 [19]: 0.64 µM

Cc1cc(C)c(C)c(S(=O)(=O)N2CCc3ccccc3C2)c1C
inhibition of growth at 0.8 µg/mL [8]: 4.5%
inhibition of growth at 4.8 µg/mL [9]: 100%
inhibition of growth at 4.8 µg/mL [10]: 18.8%
inhibition of growth at 4.8 µg/mL [12]: 1.7%
inhibition of growth at 0.8 µg/mL [13]: 1.8%
inhibition of growth at 4.8 µg/mL [14]: 23.1%
inhibition of growth at 0.8 µg/mL [15]: 2%
selectivity ratio [2]: 4.8
inhibition of growth at 0.8 µg/mL [16]: 63.3%
IC50 [17]: 3.6 µM
IC50 [19]: 0.76 µM

CCCCCCCCCCCCCCCCOP(=O)([O-])OCC[N+](C)(C)C [MILTEFOSINE]
inhibition of growth at 4.8 µg/mL [9]: 93.3%
inhibition of growth at 0.8 µg/mL [16]: 60.1%
IC50 [19]: 0.25 µM

O=S(=O)(c1ccc(Br)cc1)N1CCCc2ccccc21
IC50 [1]: 7.36 µM
selectivity ratio [2]: 0.34
selectivity ratio [3]: 0.53
selectivity ratio [4]: 1.11
IC50 [5]: 6.65 µM
IC50 [6]: 21.4 µM
IC50 [7]: 13.8 µM

O=[N+]([O-])c1ccc(S(=O)(=O)N2CCCc3ccccc32)cc1
IC50 [1]: 248 µM
selectivity ratio [3]: 21.7
selectivity ratio [4]: 29.9
IC50 [5]: 8.31 µM
IC50 [6]: > 271 µM
IC50 [7]: 11.4 µM

CC1Cc2ccccc2N1S(=O)(=O)c1ccc([N+](=O)[O-])cc1 (stereo not drawn)
inhibition of growth at 0.8 µg/mL [8]: 18%
inhibition of growth at 4.8 µg/mL [9]: 79.5%
inhibition of growth at 4.8 µg/mL [10]: 72.6%
Activity [11]: Active
inhibition of growth at 4.8 µg/mL [12]: 68.2%
inhibition of growth at 0.8 µg/mL [13]: 19.4%
inhibition of growth at 4.8 µg/mL [14]: 94.4%
inhibition of growth at 0.8 µg/mL [15]: 6.9%
selectivity ratio [3]: 24.8
inhibition of growth at 0.8 µg/mL [16]: 41.7%
IC50 [17]: 69.4 µM
IC50 [18]: 2.8 µM
